pIC50: −log10 of the molar value. Peptide text beside a SMILES is read from it.
Experiments:
[1] = test system: hippocampal neurons from A1+/Alz mice; assay: 24SOH treatment of hippocampal neurons, hAPP and HMGR content; type: cell-based, mouse
Experimental: Hippocampal neurons were isolated from A1+/Alz and A1−/Alz mice at postnatal day 5 according to standard protocols (Brewer (1997) J. Neurosci. Methods 71:143-155; Price & Brewer (2001) In Protocols for Neural Cell Culture. Fedoroff & Richardson, editors. Totowa, N.J.: Humana Press, Inc. 255-264). Cells were seeded in 6-well dishes in triplicates at 300,000 cells/well, and grown in 3 ml/well Neurobasal A medium with 1×B27, 0.5 mM L-Gln and 5 ng/ml FGF for 14 days. Half of the medium was replaced with […] fresh media once every 7 days. Forty-eight hours after the second media replacement, 50 μCi of [^3H] sodium acetate (100 mCi/mmol) in PBS was added per well for 3 hours. Lipids in cells and in media were extracted, saponified, and analyzed by using the same TLC system described herein. To minimize sterol oxidation, samples were protected from light and heat during lipid extraction, and were analyzed without storage. To improve separation, after sample loading, the TLC plate was placed under vacuum for 30 minutes prior to chromatography. ^3H-labeled sterol bands were identified based on iodine staining of unlabeled sterols added to samples prior to lipid extraction. Rf values: lanosterol, 0.5; cholesterol, 0.38; 24SOH, 0.2. The bands were scraped off and counted. For each labeled sterol, the counts present in cells and in media were added to calculate the synthesis rate for that sterol. Cholesterol esterification in intact cells was conducted according to established methods (Chang, et al. (1986) Biochemistry 25:1693-1699); the ^3H-oleate pulse time was 3 hours.
To test this, hippocampal neurons from A1+/Alz mice were treated with 24SOH, and the hAPP protein content and the HMGR protein content were monitored in parallel.

WT or A1-microglia = assay: Pulse-chase of intracellular oAβ42 degradation in microglia with lysosomal inhibitors; type: cell-based, mouse; conditions: pre-incubation with inhibitor, 0.5 μM oAβ 30 minutes, 6 hours chase
Experimental: WT or A1-microglia were pretreated with DMSO only; with bafilomycin A1 (BafA1), a lysosomal v-ATPase inhibitor (250 nM); with Ac-LVK-CHO, a cell permeable cathepsin B inhibitor (CapB I) at 1 μM; or with pepstatin A methyl ester, a cell permeable aspartyl peptidase inhibitor at 25 μM, for 60 minutes. Cells with or without the inhibitors were further incubated with 0.5 μM oAβ for 30 minutes. Cells were washed with pre-warmed PBS (twice) and pre-warmed medium (once) and then further incubated in fresh serum-free DMEM/F-12 (50:50) for 6 hours. At the end of incubation, cells were washed with PBS twice and lysed with 1% SDS containing a protease inhibitor cocktail. Intracellular oAβ levels were examined by ELISA. The values were normalized by cellular protein contents. The data are averages of 3-4 independent experiments. (mean±SEM, n.s. not significant, *p<0.05, p<0.01, ***p<0.001).
Pulse-chase of oAβ42 was also carried out (FIG. 4A) and the fate of oAβ42 was monitored via an ELISA assay.

AD mice = conditions: in vivo, cited from earlier work
[2] = test system: transgenic mice expressing human APP(751) containing the London (V717I) and Swedish (K670M/N671L) mutations; conditions: cited from earlier work
WT microglia = assay: Oligomeric Aβ clearance from medium by microglia; type: cell-based, mouse; conditions: 1 μM pretreatment 24 hours, then 0.5 μM oAβ 18 hours
Experimental: WT or A1-microglia were treated with K604 at 1 μM in DMEM/F-12 (50:50) with 10% FBS for 24 hours. Control (Veh) or K604-treated microglia were subsequently incubated with 0.5 μM oAβ in serum-free DMEM/F-12 (50:50) containing 10 μg/ml BSA for 18 hours. At the end of incubation, the media were collected and the residual oAβ levels were detected by western blot analysis. Quantification was performed with image J software (mean±SEM, ***p<0.001).
Primary microglia from normal (WT) and Acat1-knockout (A1−) mouse brains were cultured in vitro. Oligomeric Aβ42 (0.5 μM) in serum-free DMEM/F-12 (50:50) medium containing 10 μg/ml BSA was added to the culture and the culture was incubated for 0, 3, 6, 12 or 18 hours. The remaining Aβ levels (1+2+3+4mers) in the media were analyzed by western blot analysis.
Clearance of oAβ in WT microglia and WT microglia pretreated with the ACAT1-selective inhibitor K604 was also determined.

mouse ACAT1 = mouse ACAT1 (Mus musculus (Mouse), UniProt Q61263); assay: ACAT1 western blot in NIH-3T3 fibroblasts transfected with microRNA; type: cell-based; conditions: 48 hours post-transfection, GFP-positive cells
From the text: NIH-3T3 mouse fibroblasts were transiently transfected with one of several rAAV vectors encoding EmGFP and microRNA (miR) #52, #53, #54 or #55. Forty-eight hours post-transfection, GFP-positive cells were harvested by FACS. GFP-positive cells were washed then lysed in 10% SDS and syringe homogenized. Twenty microgram of protein per sample was subjected to SDS-PAGE. After western blot analysis, bands were quantified with ImageJ. ACAT1 intensity was normalized to GAPDH as a loading control and expressed as relative intensity.
Four different siRNA molecules (#52-#55; SEQ ID NOs:37-40; Table 3) targeting the mouse Acat1 gene were inserted into an endogenous mouse microRNA (miR) scaffold using Invitrogen's RNAi design tool. The artificial miRs were ligated into the mammalian expression vector pcDNA6.2-GW/EmGFP-miR. These. […] The miRs were delivered to the cells using a standard cDNA transfection protocol.

human ACAT2 = human ACAT2 (Homo sapiens (Human), UniProt O75908); conditions: read-out: IC50 hACAT-2; cited from earlier work
human ACAT2, sequence (O75908 whole entry): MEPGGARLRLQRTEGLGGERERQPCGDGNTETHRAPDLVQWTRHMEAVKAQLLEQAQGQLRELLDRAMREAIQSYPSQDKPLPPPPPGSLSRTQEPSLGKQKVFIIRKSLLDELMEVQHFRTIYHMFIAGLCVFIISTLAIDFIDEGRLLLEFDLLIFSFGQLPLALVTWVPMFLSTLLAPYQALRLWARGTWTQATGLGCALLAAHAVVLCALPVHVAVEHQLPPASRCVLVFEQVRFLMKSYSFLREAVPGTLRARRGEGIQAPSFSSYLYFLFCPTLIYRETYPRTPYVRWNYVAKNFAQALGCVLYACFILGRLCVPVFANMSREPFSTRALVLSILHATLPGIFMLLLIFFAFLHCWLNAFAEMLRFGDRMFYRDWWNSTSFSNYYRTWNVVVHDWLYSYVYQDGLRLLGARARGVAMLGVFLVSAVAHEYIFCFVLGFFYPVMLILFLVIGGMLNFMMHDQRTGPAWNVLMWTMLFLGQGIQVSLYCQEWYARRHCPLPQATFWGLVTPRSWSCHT

Compound: CC(C)[C@@H](O)CC[C@@H](C)[C@H]1CC[C@H]2[C@@H]3CC=C4C[C@@H](O)CC[C@]4(C)[C@H]3CC[C@]12C [24SOH, 24S-hydroxycholesterol]
- HMGR protein content ([1]; 1 μM, within 3 hours): rapidly decreased
- hAPP protein content ([1]; 1 μM, within 3 hours): rapidly decreased
- hAPP mRNA level ([1]; 1-5 μM): without affecting
- hAPP protein content ([1]; 1-5 μM): rapid decline

Compound: CC(=O)N[C@@H](CC(C)C)C(=O)N[C@H](C(=O)N[C@H](C=O)CCCCN)C(C)C [Ac-LVK-CHO] (Ac-Leu-Val-Lys-aldehyde)
- difference in oAβ42 degradation between WT and A1-microglia (WT or A1-microglia): abolished

Compound: CC(C)c1cc(C(C)C)c(CC(=O)NS(=O)(=O)Oc2c(C(C)C)cccc2C(C)C)c(C(C)C)c1 [CI 1011]
- amyloid plaques (AD mice; mouse): significantly reduced
- cognitive deficits (AD mice; mouse): rescued
- mature/immature ratio of hAPP (AD mice; mouse): decreases

Compound: CCCCCCCC[C@H](SCCCCCC)C(=O)Nc1c(SC)cc(C)nc1SC [CP-113,818]
- processing of both human APP and mouse APP (AD mice): inhibits
- amyloid plaques (AD mice; mouse): significantly reduced
- cognitive deficits (AD mice; mouse): rescued
- spatial learning ([2]; mouse, in vivo): slightly improved
- ectodomain shedding of endogenous APP in the brain ([2]; nontransgenic littermates): reduced
- reduction of accumulation of amyloid plaques ([2]; two months of treatment): 88%-99%
- reduction of membrane/insoluble Amyloid β levels ([2]; two months of treatment): 83%-96%

Compound: CSc1cc(C)nc(SC)c1NC(=O)CN1CCN(CCSc2nc3ccccc3[nH]2)CC1 [K-604]
- enhancement of ability to clear oAβ42 from the medium (WT microglia): up to 65%
- oAβ degradation in microglia (WT microglia): promotes oAβ degradation

Compound: miR Negative Control: negative control miR 5′-TACTGCGCGTGGAGACG-3′ (SEQ ID NO:46), matches no known vertebrate gene (chemistry not given here)
- Relative Intensity (ACAT1 normalized to GAPDH) (mouse ACAT1): 1.02

Compound: saucerneol B
- pIC50 (human ACAT2): 3.91

From patent US9149492B2, “Method for selectively inhibiting ACAT1 in the treatment of alzheimer's disease” (Trustees of Dartmouth College, priority 2008, dated 2015)
